Laboratory results reported in patent US4889926A, “Method for the synthesis of (2"R)-4'-O-tetra-hydropyranyladriamycim using 14-chloro-daunomycin as an intermediate” (priority 1987, dated 1989).
In brackets after ≈: the same amount, converted by molar mass. Like-named read-outs stand apart in the source and are kept apart here.

Experiments:
[1] = system: murine leukemia L-1210 cells; test: Growth inhibition by MTT assay, L-1210; format: cell-based; details: Mus musculus, read-out: IC50 value (50% growth inhibitory concentration), L-1210
Protocol: (§1) Antitumor activities of 14-chlorodaunomycin against various experimental tumors, including murine leukemia P-388 cells, murine leukemia P-388 cells (resistant to adriamycin), murine melanoma B16 cells, human lung cancer PC14 cells and murine leukemia L-1210 cells, were tested and evaluated in vitro by the following procedure:
(§2) The tumor cells were cultivated in RPMI 1640 medium supplemented with 10% fetal calf serum, 10μM 2-hydroxyethyldisulfide and kanamycin at 50 μg/ml (the growth medium), under air containing 5% CO2 at 37° C.
(§3) The tumor cells were incubated at initial densities of 1.5×10^4 cells/ml with murine melanoma B16; 2×10^4 cells/ml with murine leukemia P388, P388/ADR and L-1210; and 2.5×10^4 cells/ml with human lung cancer PC14 cells in the growth medium further containing graded concentrations of each test compound, for 72 hours. The IC50 value, namely the 50% growth inhibitory concentration of the tested compound was evaluated by MTT assay method (see Mosmann, T; "J. Immunol. Methods", 65, 55-63 (1983).

[2] = system: murine leukemia P-388 cells (resistant to adriamycin); test: Growth inhibition by MTT assay, P-388 resistant to adriamycin; format: cell-based; details: Mus musculus, read-out: IC50 value (50% growth inhibitory concentration), P-388 resistant to adriamycin
Protocol: as §1, §2, §3

[3] = system: human lung cancer PC14 cells; test: Growth inhibition by MTT assay, PC14; format: cell-based; details: read-out: IC50 value (50% growth inhibitory concentration), PC14
Protocol: as §1, §2, §3

[4] = system: murine leukemia P-388 cells; test: Growth inhibition by MTT assay, P-388; format: cell-based; details: Mus musculus, read-out: IC50 value (50% growth inhibitory concentration), P-388
Protocol: as §1, §2, §3

[5] = system: murine melanoma B16 cells; test: Growth inhibition by MTT assay, B16; format: cell-based; details: Mus musculus, read-out: IC50 value (50% growth inhibitory concentration), B16
Protocol: as §1, §2, §3

tumor = details: Japanese patent publication No. 47194/81 and U.S. Pat. No. 4,303,785; cited from earlier work
[6] = Stability in solution in an organic solvent; format: physicochemical
[7] = Storage stability in solid state; format: physicochemical; details: -10° C.
Source text: In the above-mentioned known processes for the preparation of (2"R)-4'-O-THPADM of formula (A) in which daunomycin (DM) of formula (II) is used as the starting compound, and which are effected via the 14-bromodaunomycin of formula (V) as the intermediate product (namely the processes of the aforesaid Japanese patent application first publication "Kokai" Nos. 104,299/80 and 156,300/81), there are formed great amounts of the undesired by-products in the tetrahydropyranylation step so that the intended final compound can be obtained only in a low yield with these prior art processes. The intermediate compound, 14-bromodaunomycin is so unstable that even when it has been stored in its solid state at -10° C. for about 1 week, 14-bromodaunomycin can remain only in such an amount which is as little as about two-thirds of its initial amount before its storage, due to that the amino sugar moiety bonded to the 7-position can be cleaved to bring about the degradation of 14-bromodaunomycin.

[8] = system: various kinds of experimental tumors; test: Antitumor activity against various experimental tumors (in words); format: cell-based
Protocol: as §1, with “procedure: […]” for “procedure:”

[9] = L1210, L-1210, 72 hours, MTT assay, 2×10^4 cells/ml
[10] = P388/ADR, 72 hours, MTT assay, 2×10^4 cells/ml
[11] = PC-14, PC14, 72 hours, MTT assay, 2.5×10^4 cells/ml
[12] = P388, P-388, 72 hours, MTT assay, 2×10^4 cells/ml
[13] = B16, 72 hours, MTT assay, 1.5×10^4 cells/ml

Q: For COc1cccc2c1C(=O)c1c(O)c3c(c(O)c1C2=O)C[C@@](O)(C(=O)CO)C[C@@H]3O[C@H]1C[C@H](N)[C@H](O)[C@H](C)O1 [Adriamycin, adriamycin], which IC50 [1, 9] is on record?
A: Its IC50 is 0.154 mg/L (≈ 0.283 µM).

Q: And the IC50 [2, 10]?
A: Its IC50 is 2.06 mg/L (≈ 3.79 µM).

Q: What about the IC50 [3, 11] of the same compound?
A: The IC50 was 0.765 mg/L (≈ 1.41 µM).

Q: And the IC50 [4, 12]?
A: The IC50 was 0.033 mg/L (≈ 0.0607 µM).

Q: What about the IC50 [5, 13] of the same compound?
A: Its IC50 is 0.101 mg/L (≈ 0.186 µM).

Q: Which antitumor activity (tumor) does the source give for COc1cccc2c1C(=O)c1c(O)c3c(c(O)c1C2=O)C[C@@](O)(C(=O)CO)C[C@@H]3O[C@H]1C[C@H](N)[C@H](O[C@@H]2CCCCO2)[C@H](C)O1 [4'-O-tetrahydropyranyladriamycin] here?
A: Its antitumor activity is “has antitumor activity”.

Q: Which IC50 ([1]; L1210, 72 h) does the source give for COc1cccc2c1C(=O)c1c(O)c3c(c(O)c1C2=O)C[C@@](O)(C(=O)CCl)C[C@@H]3O[C@H]1C[C@H](N)[C@H](O)[C@H](C)O1 [14-chlorodaunomycin] here?
A: Its IC50 is 0.268 mg/L (≈ 0.477 µM).

Q: And the IC50 ([2]; P388, 72 h)?
A: Its IC50 is 0.552 mg/L (≈ 0.982 µM).

Q: And the IC50 ([3]; PC-14, 72 h)?
A: Its IC50 is 0.96 mg/L (≈ 1.71 µM).

Q: What about the IC50 ([4]; P388, 72 h) of the same compound?
A: Its IC50 is 0.0963 mg/L (≈ 0.171 µM).

Q: And the IC50 ([5]; B16, 72 h)?
A: Its IC50 is 0.093 mg/L (≈ 0.165 µM).

Q: What about the “decomposition rate in solution compared with 14-bromodaunomycin” value ([6]; organic solvent containing some water and an acidic compound, same conditions) of the same compound?
A: The value was “considerably smaller than that of 14-bromodaunomycin”.

Q: What about the “stability in solution in an organic solvent” value ([6]; solution in an organic solvent) of the same compound?
A: The value was “somewhat stable”.

Q: And the decomposition on storage ([7]; solid form, 1 week or so)?
A: Its decomposition on storage is “no substantial decomposition”.

Q: And the antitumor activity [8]?
A: Its antitumor activity is “remarkable antitumor activity”.

Q: Which “amount remaining of its initial amount after storage” value ([7]; 14-bromodaunomycin (comparator intermediate), solid state, about 1 week) does the source give for COc1cccc2c1C(=O)c1c(O)c3c(c(O)c1C2=O)C[C@@](O)(C(=O)CBr)C[C@@H]3O[C@H]1C[C@H](N)[C@H](O)[C@H](C)O1 [14-bromodaunomycin] here?
A: The value was “about two-thirds”.

Q: For COc1cccc2c1C(=O)c1c(O)c3c(c(O)c1C2=O)C[C@@](O)(C(C)=O)C[C@@H]3O[C@H]1C[C@H](N)[C@H](O)[C@H](C)O1 [Daunomycin, daunomycin], which IC50 [1, 9] is on record?
A: Its IC50 is 0.0655 mg/L (≈ 0.124 µM).

Q: What about the IC50 [2, 10] of the same compound?
A: The IC50 was 0.668 mg/L (≈ 1.27 µM).

Q: What about the IC50 [3, 11] of the same compound?
A: Its IC50 is 0.237 mg/L (≈ 0.449 µM).

Q: And the IC50 [4, 12]?
A: Its IC50 is 0.0163 mg/L (≈ 0.0309 µM).

Q: What about the IC50 [5, 13] of the same compound?
A: Its IC50 is 0.0449 mg/L (≈ 0.0851 µM).
